# ChEMBL document CHEMBL5614418, “Discovery of novel dihydropyrrolidone-thiadiazole compound crosstalk between the YycG/F two-component regulatory pathway and cell membrane homeostasis to combat methicillin-resistant Staphylococcus aureus” (Eur J Med Chem, 2024)
# Activity calls are given as the source filed them. The calls are words filed in the database; no cut-off is given here.
# Legend:
# [1] = test system: Staphylococcus aureus; assay: Antibacterial activity against methicillin sensitive Staphylococcus aureus SA113 assessed as reduction in membrane fluidity at 1 to 4 times MIC incubated for 30 mins by fluorescence based assay; assay type: functional, organism-based
# [2] = test system: Staphylococcus epidermidis; assay: Synergistic bactericidal activity against Staphylococcus epidermidis SE1457 assessed as planktonic cells killing by measuring log reduction in bacterial count at 8 times MIC measured after 24 hrs in presence of daptomycin; assay type: functional
# [3] = test system: Enterococcus faecium; assay: Antibacterial activity against Enterococcus faecium EFM64 by broth microdilution method; assay type: functional
# [4] = test system: Staphylococcus epidermidis; assay: Bactericidal activity against Staphylococcus epidermidis SE1457; assay type: functional
# [5] = test system: Enterococcus faecalis; assay: Bactericidal activity against Enterococcus faecalis OG1RF; assay type: functional
# [6] = test system: Enterococcus faecium; assay: Bactericidal activity against Enterococcus faecium EFM64; assay type: functional
# [7] = test system: Staphylococcus epidermidis; assay: Inhibition of bacterial growth in Staphylococcus epidermidis SE1457 at MIC concentration measured upto 16 hrs; assay type: functional
# [8] = test system: Staphylococcus aureus; assay: Inhibition of bacterial growth in methicillin sensitive Staphylococcus aureus SA113 at MIC concentration measured upto 16 hrs; assay type: functional
# [9] = test system: Staphylococcus aureus; assay: Inhibition of bacterial growth in methicillin resistant Staphylococcus aureus USA300 at MIC concentration measured upto 16 hrs; assay type: functional
# [10] = test system: Staphylococcus epidermidis; assay: Inhibition of bacterial growth in Staphylococcus epidermidis SE1457 at 1/2 MIC concentration measured upto 16 hrs; assay type: functional, organism-based
# [11] = test system: Staphylococcus aureus; assay: Synergistic antibacterial activity against methicillin resistant Staphylococcus aureus USA300 in presence of vancomycin; assay type: functional, organism-based
# [12] = test system: Staphylococcus aureus; assay: Synergistic antibacterial activity against methicillin resistant Staphylococcus aureus USA300 assessed as fold increase in MIC in presence of daptomycin; assay type: functional
# [13] = test system: Staphylococcus aureus; assay: Synergistic antibacterial activity against methicillin resistant Staphylococcus aureus USA300 assessed as fractional inhibitory concentration index in presence of daptomycin; assay type: functional
# [14] = test system: Staphylococcus aureus; assay: Bactericidal activity against methicillin resistant Staphylococcus aureus USA300 assessed as planktonic cells killing by measuring log reduction in bacterial count at 2 to 8 times MIC measured after 24 hrs; assay type: functional
# [15] = test system: Staphylococcus aureus; assay: Synergistic bactericidal activity against Staphylococcus aureus USA300 assessed as planktonic cells killing by measuring log reduction in bacterial count at 8 times MIC measured after 24 hrs in presence of daptomycin; assay type: functional
# [16] = test system: Staphylococcus epidermidis; assay: Synergistic bactericidal activity against Staphylococcus epidermidis SE1457 assessed as persister cells killing by measuring log reduction in bacterial count at 8 times MIC measured after 72 hrs in presence of daptomycin; assay type: functional
# [17] = test system: Staphylococcus aureus; assay: Synergistic bactericidal activity against Staphylococcus aureus USA300 assessed as persister cells killing by measuring log reduction in bacterial count at 8 times MIC measured after 72 hrs in presence of daptomycin; assay type: functional
# [18] = test system: Staphylococcus epidermidis; assay: Induction of matured biofilm eradication in Staphylococcus epidermidis SE1457 assessed as reduction in bacterial survival in biofilm at 8 times MIC incubated for 48 hrs by SYTO 9 staining based confocal fluorescence microscopic analysis; assay type: functional
# [19] = test system: Staphylococcus epidermidis; assay: Induction of matured biofilm eradication in Staphylococcus epidermidis SE1457 assessed as reduction in bacterial survival in biofilm at 8 times MIC incubated for 48 hrs in presence of daptomycin by SYTO 9 staining based confocal fluorescence microscopic analysis; assay type: functional
# [20] = test system: Staphylococcus epidermidis; assay: Induction of matured biofilm eradication in Staphylococcus epidermidis SE1457 assessed as log reduction in bacterial count in biofilm at 8 times MIC incubated for 48 hrs in presence of daptomycin by agar plate method; assay type: functional
# [21] = target: T1, Sensor protein kinase WalK (Staphylococcus aureus, UniProt Q9RDT3); assay: Inhibition of Staphylococcus aureus YycG expressed in Escherichia coli preincubated for 30 mins followed by ATP addition and measured after 30 mins by kinase-Glo luminescent assay
# T1 sequence (Q9RDT3 whole entry): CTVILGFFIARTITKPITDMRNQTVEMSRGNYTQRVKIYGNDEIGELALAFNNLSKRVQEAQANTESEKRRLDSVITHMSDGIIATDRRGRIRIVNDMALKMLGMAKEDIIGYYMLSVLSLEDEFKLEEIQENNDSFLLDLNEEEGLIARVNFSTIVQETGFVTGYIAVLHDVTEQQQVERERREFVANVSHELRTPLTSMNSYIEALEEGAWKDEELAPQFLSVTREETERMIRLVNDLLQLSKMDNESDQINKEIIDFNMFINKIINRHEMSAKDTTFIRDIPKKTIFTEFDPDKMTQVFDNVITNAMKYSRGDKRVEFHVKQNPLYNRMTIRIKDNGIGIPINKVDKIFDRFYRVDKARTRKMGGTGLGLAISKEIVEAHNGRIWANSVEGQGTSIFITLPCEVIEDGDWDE
# [22] = test system: Staphylococcus aureus; assay: Downregulation of arcC2 expression level in methicillin sensitive Staphylococcus aureus SA113 at 1/2 MIC incubated for 2 hrs by MS/MS analysis; assay type: functional
# [23] = test system: Staphylococcus aureus; assay: Downregulation of pflB expression level in methicillin sensitive Staphylococcus aureus SA113 at 1/2 MIC incubated for 2 hrs by MS/MS analysis; assay type: functional
# [24] = test system: Staphylococcus aureus; assay: Downregulation of acetyl-CoA level in methicillin sensitive Staphylococcus aureus SA113 at 1/2 MIC incubated for 30 mins; assay type: functional
# [25] = test system: Staphylococcus aureus; assay: Downregulation of arcC1 gene expression level in methicillin sensitive Staphylococcus aureus SA113 at 1/2 MIC by RT-qPCR analysis; assay type: functional
# [26] = test system: Staphylococcus aureus; assay: Downregulation of arcC2 gene expression level in methicillin sensitive Staphylococcus aureus SA113 at 1/2 MIC by RT-qPCR analysis; assay type: functional
# [27] = test system: Staphylococcus aureus; assay: Antibacterial activity against methicillin sensitive Staphylococcus aureus SA113 assessed as fold increase in MIC in presence of phosphatidyl glycerol by chequerboard microdilution assay; assay type: functional
# [28] = test system: Staphylococcus aureus; assay: Antibacterial activity against methicillin sensitive Staphylococcus aureus SA113 in presence of palmitic acid; assay type: functional, organism-based
# [29] = test system: Staphylococcus aureus; assay: Antibacterial activity against methicillin sensitive Staphylococcus aureus SA113 in presence of oleic acid; assay type: functional, organism-based
# [30] = Binding affinity to biotin-labeled cardiolipin (unknown origin) by biolayer interferometry
# [31] = test system: Cell membrane; assay: Induction of cell membrane disruption in methicillin sensitive Staphylococcus aureus SA113 at 4 times MIC incubated for 2 hrs by TEM analysis; assay type: cell membranes
# [32] = test system: Staphylococcus aureus; assay: Induction of resistance development in methicillin sensitive Staphylococcus aureus SA113 assessed as fold increase in MIC at 1/2 MIC incubated for 16 hrs after 20 serial passages; assay type: functional
# [33] = test system: Staphylococcus aureus; assay: Antibacterial activity against methicillin resistant Staphylococcus aureus USA300 infected in BALB/c mouse wound model assessed as log reduction in wound bacterial load at 20 mg/kg, ip administered every 12 hrs for 3 times and measured after 48 hrs in presence of DAP; assay type: functional
# [34] = test system: Staphylococcus aureus; assay: Antibacterial activity against methicillin resistant Staphylococcus aureus […] infected in BALB/c mouse wound model assessed as log reduction in wound bacterial load at 20 mg/kg, ip administered every 12 hrs for 3 times and measured after 48 hrs in presence of DAP; assay type: functional
# [35] = Toxicity in BALB/c mouse assessed as apparent tissue damage at 50 mg/kg, ip measured after 1 to 3 days; assay type: organism-based; conditions: in vivo, time 1-3 day
# [36] = test system: Staphylococcus aureus; assay: Antibacterial activity against methicillin sensitive Staphylococcus aureus CHS101; assay type: functional
# [37] = test system: Staphylococcus aureus; assay: Antibacterial activity against methicillin resistant Staphylococcus aureus YUSA151; assay type: functional
compound,measurement,setting,value
O=C(C1=C(O)C(=O)N(c2nnc(SCc3ccccc3Cl)s2)C1c1ccccc1O)c1cc2ccccc2o1 (stereo not drawn),Activity,[1],Active
same,log(activity),[2],4.5
same,MIC50,[3],≥ 50 µM
same,MIC90,[3],≥ 50 µM
same,MBC,[4],25 µM
same,MBC,[5],100 µM
same,MBC,[6],100 µM
same,inhibition (INH),[7],100%
same,inhibition (INH),[8],100%
same,inhibition (INH),[9],100%
same,growth inhibition (GI),[10],Active
same,Activity,[11],inactive
same,fold change (FC),[12],2
same,fractional inhibitory concentration index (FICI),[13],<=0.5
same,log(activity),[14],2.7
same,log(activity),[15],4.5
same,log(activity),[16],3
same,log(activity),[17],3
same,Activity,[18],<50%
same,Activity,[19],>70%
same,log(activity),[20],3
same,IC50,[21],19.5 µM
same,Activity,[22],Active
same,Activity,[23],Active
same,Activity,[24],Active
same,Activity,[25],Active
same,Activity,[26],Active
same,fold change (FC),[27],16
same,Activity,[28],inactive
same,Activity,[29],inactive
same,Kd,[30],44.1 µM
same,Activity,[31],Active
same,Activity,[32],inactive
same,log(activity),[33],3.5
same,log(activity),[34],3.5
same,Activity,[35],Non-Toxic
same,MIC,[36],12.5 µM
same,MIC,[37],12.5 µM
